Assay: Stability against photobleaching of free CANIR and NIR fluorescent nanoparticles
Assay type: physicochemical
Conditions: illuminated continuously with a Xenon flash lamp for 20 minutes; λex 800 nm, λem 830 nm; intensity normalized
Method: Photobleaching is the irreversible light-induced destruction of the fluorophore, affected by factors such as oxygen, oxidizing or reducing agents, temperature, exposure time and illumination levels. For photobleaching experiments, the samples were diluted to 0.05M and λex was set at 800 nm and λem at 830 nm. Each of the samples was illuminated continuously, and fluorescence intensity was measured over a period of 20 minutes. The intensity values were normalized.
Photobleaching experiments were performed for the free CANIR dye and the CANIR-HSA nanoparticles, in order to examine their photostabillity. For the photobleaching experiments, the samples were diluted to 0.05M and λex was set at 800 nm and λem at 830 nm. Each of the samples was illuminated continuously, and fluorescence intensity was measured over a period of 20 minutes. Intensity values were normalized. […] The encapsulation of the dye probably protects the dye against reactive oxygen species thereby reducing the photobleaching.
FIG. 2 depicts the photostability of the CANIR-HSA nanoparticles (A) and free CANIR (B) as a function of time. Samples of CANIR containing HSA nanoparticles and free CANIR were illuminated with a Xenon flash lamp for 20 minutes as described above.

**Q.** For CC1(C)C(=CC=C2CCCC(C=CC3=[N+](CCCCS(=O)(=O)[O-])c4ccccc4C3(C)C)=C2Sc2ccc(C(=O)O)cc2)N(CCCCS(=O)(=O)[O-])c2ccccc21.[Na+] [free CANIR], which “fluorescence intensity during illumination (photostability)” value is on record?
**A.** decreases significantly

From patent US20130030282A1, “SYNTHESIS AND CHARACTERIZATION OF NEAR IR FLUORESCENT MAGNETIC AND NON-MAGNETIC ALBUMIN NANOPARTICLES FOR BIOMEDICAL APPLICATIONS” (BAR ILAN UNIVERSITY, priority 2011, published 2013)
